Test results: PMC7705112, “A Novel, Broad-Acting Peptide Inhibitor of Double-Stranded DNA Virus Gene Expression and Replication” (Frontiers in Microbiology, 2020)
“Also recorded” adds a separate entry of the source.

Key:
HEK293 cells = experiment: Cell viability, CellTiter-Glo 2.0; type: cell-based; conditions: 96 h incubation; Figure 2B, triplicate wells
Protocol: (§1) Vero, MRC-5, and CV-1 cells were cultured in Dulbecco’s Modified Eagle Medium (DMEM; ThermoFisher, Waltham, MA, United States) and Jurkat cells were cultured in RPMI 1640 medium containing 10% fetal calf serum, 100 U/ml penicillin, and 0.1 mg/ml streptomycin (ThermoFisher). HEK293 and NIH/3T3 cells were adapted to growth in CO2-independent medium supplemented with 10% fetal calf serum, 2 mM glutamine, and 1% antibiotic-antimycotic (ThermoFisher) and cultivated in a humidified atmosphere at 37°C. […] Viability was analyzed using CellTiter-Glo® 2.0 Assay according to the manufacturer’s protocol (Promega). […] Cytotoxicity was analyzed using MultiTox-Glo Multiplex Cytotoxicity Assay according to the manufacturer’s protocol (Promega).

adenovirus type 5 = type: cell-based; conditions: HEK293, 24 h; Figure 3A, TAT (48–60)
Protocol: Luciferase from cell lysates was recorded 24 hours after infection. Results shown are luciferase levels expressed as % of control from duplicate wells. Luciferase was detected using Luciferase Assay System as described in Materials & Methods of the main article.

adenovirus 5 = type: cell-based; conditions: A549; Figure S3A
adenovirus 4 = experiment: Replicon assay (AAV-GLuc-3B), A549 cells, adenovirus 4; type: cell-based; conditions: A549, MOI 1.0, at the concentrations used; Figures 3D, S3A
adenovirus 19a/64 = experiment: Replicon assay (AAV-GLuc-3B), A549 cells, adenovirus 19a/64; type: cell-based; conditions: A549, MOI 1.0, at the concentrations used; Figures 3D, S3A
murine CMV (MCMV) = type: cell-based, murine cytomegalovirus; conditions: NIH/3T3, MOI 0.5, 72 h; Figures 4A, S4A
Protocol: NIH/3T3 cells were seeded at a density of 2 × 10^4 cells/well of a 96-well plate and allowed to attach overnight. On the next day, medium was removed and replaced by medium containing peptide dilutions. Then, murine CMV (MCMV) expressing firefly luciferase ([Trilling et al., 2011]) was added to the cells at a MOI of 0.5 with aid of centrifugal enhancement at 800 × g for a total of 30 min.
Virus adsorption was performed by addition of MCMV expressing luciferase at a MOI of 0.5 with centrifugal enhancement at +4°C and further incubation at +4°C for 60 min before removal of unabsorbed virus and three times washing of cells with cold medium. […] After 72 h incubation at 37°C, luciferase levels were determined from cell lysates as described above.
In another setting, NIH/3T3 cells were preincubated with TAT-I24 at concentrations of 1 and 10 μM for 1, 3, and 6 h followed by removal of peptide and 3x washing with medium. […] After 72 h, luciferase levels were determined from cell lysates as described above.
A, NIH/3T3 cells were seeded at a density of 2 x 10^4 cells/well of a 96-well plate and treated on the next day with increasing concentrations of I24 or TAT-I24 and infected with MCMV (MOI = 0.5). After 72 hrs, luciferase was determined from cell lysates. Results shown are luciferase levels expressed as % of control from duplicate wells. […] Plaque formation was determined after 5 days. […]

NIH/3T3 cells = experiment: Cytotoxicity, MultiTox-Glo Multiplex; type: cell-based; conditions: 72 h; Figure 4B, triplicates
Protocol: as §1

MCMV S-mCherry-SCP = MCMV S-mCherry-SCP replication, microscopy; type: cell-based, murine cytomegalovirus; conditions: NIH/3T3, various concentrations, 72 h; Figure 4C
Protocol: For analysis of MCMV replication, NIH/3T3 cells were seeded at a density of 2 × 10^4 cells/well of ibiTreat eight-well chambers (ibidi, Germany). On the next day, cells were treated with peptides and infected with murine CMV S-mCherry-SCP ([Bosse et al., 2012]) at a MOI 0.2 for 72 h before fixation with 5% formaldehyde and staining of nuclei with DAPI. Microscopic examination was performed using a Live Cell Video Microscope (Leica Microsystems).

HCMV TB40 = experiment: Replicon assay (AAV-GLuc-3B), MRC-5 cells, HCMV; type: cell-based, human cytomegalovirus; conditions: MRC-5, 3 days; Figure 7A, TAT (48–60)
RSV (strain A2) = experiment: RSV cytopathic effect; type: cell-based, Respiratory syncytial virus A; conditions: human Hep2 cells, pre-treated, infected 2 hrs at 37°C, 3 days, microscopy
Protocol: Respiratory syncytial virus (RSV): Human Hep2 cells were pre-treated with peptides and infected with cell-free RSV Stock (strain A2) for 2 hrs at 37°C. Medium was then removed and unabsorbed virus removed by washing. Medium containing peptide dilutions was then added to cells.

[1] = tested on: vaccinia virus wild-type (strain Western Reserve); conditions: CV-1; Figure 9B
Varicella zoster virus = experiment: VZV cytopathic effect; conditions: human fibroblasts, pre-treated, infected 1 h, three days, microscopy
influenza A PR8 = experiment: Influenza A plaque-formation assay; conditions: MDCK cells, three days, at the concentrations used
HSV-1 UL30 gene = experiment: HSV-1 UL30 transcripts by real-time PCR; conditions: cells from the replicon assay; Figures 8B, S6C
TZM-bl reporter cells = experiment: Reporter gene expression in non-infected TZM-bl cells; conditions: 48 hours after treatment; Figure S7

Sequence: GRKKRRQRRRPPQ [TAT]
- effects on HEK293 cell viability (HEK293 cells): no effects
- effect on reporter gene expression (adenovirus type 5): ineffective
- effect on replication (adenovirus 5): no effect
- effect on replication (adenovirus 4): no effect
- effect on replication (adenovirus 19a/64): no effect
- effect on luciferase expression (murine CMV (MCMV)): only partially decreased
- cytotoxic effects (viable and dead cells) (NIH/3T3 cells): No cytotoxic effects
- cells producing virus particles (MCMV S-mCherry-SCP): cells producing virus particles were seen
- effect on HCMV replication (HCMV TB40): no effect
- CPE (RSV (strain A2)): no inhibition
- effect on VACV wt replication [1]: no effect
- CPE (Varicella zoster virus): no inhibition
- Plaque assay (influenza A PR8): no inhibition
- UL30 transcript levels normalized to 18S rRNA (HSV-1 UL30 gene): No effect; also recorded: does not affect
- effect on reporter gene expression in the absence of virus (TZM-bl reporter cells): No inhibition
